The nature of data set [1]: Cytotoxicity against Homo sapiens (human) MCF7/ADR cells assessed as inhibition of cell proliferation after 48 hr by SRB assay. As to conditions: for IC10: human. The data set is classed as cell-based, NCI/ADR-RES. Background: The SRB assay estimates cell density from bound dye.
A further data set has as its system MCF7. The data set is described as follows: Cytotoxicity against Homo sapiens (human) MCF7 cells assessed as inhibition of cell proliferation after 48 hr by SRB assay. The data set is classed as cell-based. The following applies: mcf7, 48 h.
Data set [2] concerns the target ATP-dependent translocase ABCB1 (Homo sapiens, UniProt P08183). The data set is described as follows: Inhibition of P-glycoprotein in Homo sapiens (human) MCF7/ADR cells assessed as doxorubicin-induced growth inhibition after 48 hr by SRB assay (Doxorubicin Rvb = 5.1 +/-1.2%). The following applies: nci/adr-res. It counts as cell-based.
Where [3] appears, read: Homo sapiens, NCI/ADR-RES, 48 h.

ATP-dependent translocase ABCB1, sequence (P08183 whole entry): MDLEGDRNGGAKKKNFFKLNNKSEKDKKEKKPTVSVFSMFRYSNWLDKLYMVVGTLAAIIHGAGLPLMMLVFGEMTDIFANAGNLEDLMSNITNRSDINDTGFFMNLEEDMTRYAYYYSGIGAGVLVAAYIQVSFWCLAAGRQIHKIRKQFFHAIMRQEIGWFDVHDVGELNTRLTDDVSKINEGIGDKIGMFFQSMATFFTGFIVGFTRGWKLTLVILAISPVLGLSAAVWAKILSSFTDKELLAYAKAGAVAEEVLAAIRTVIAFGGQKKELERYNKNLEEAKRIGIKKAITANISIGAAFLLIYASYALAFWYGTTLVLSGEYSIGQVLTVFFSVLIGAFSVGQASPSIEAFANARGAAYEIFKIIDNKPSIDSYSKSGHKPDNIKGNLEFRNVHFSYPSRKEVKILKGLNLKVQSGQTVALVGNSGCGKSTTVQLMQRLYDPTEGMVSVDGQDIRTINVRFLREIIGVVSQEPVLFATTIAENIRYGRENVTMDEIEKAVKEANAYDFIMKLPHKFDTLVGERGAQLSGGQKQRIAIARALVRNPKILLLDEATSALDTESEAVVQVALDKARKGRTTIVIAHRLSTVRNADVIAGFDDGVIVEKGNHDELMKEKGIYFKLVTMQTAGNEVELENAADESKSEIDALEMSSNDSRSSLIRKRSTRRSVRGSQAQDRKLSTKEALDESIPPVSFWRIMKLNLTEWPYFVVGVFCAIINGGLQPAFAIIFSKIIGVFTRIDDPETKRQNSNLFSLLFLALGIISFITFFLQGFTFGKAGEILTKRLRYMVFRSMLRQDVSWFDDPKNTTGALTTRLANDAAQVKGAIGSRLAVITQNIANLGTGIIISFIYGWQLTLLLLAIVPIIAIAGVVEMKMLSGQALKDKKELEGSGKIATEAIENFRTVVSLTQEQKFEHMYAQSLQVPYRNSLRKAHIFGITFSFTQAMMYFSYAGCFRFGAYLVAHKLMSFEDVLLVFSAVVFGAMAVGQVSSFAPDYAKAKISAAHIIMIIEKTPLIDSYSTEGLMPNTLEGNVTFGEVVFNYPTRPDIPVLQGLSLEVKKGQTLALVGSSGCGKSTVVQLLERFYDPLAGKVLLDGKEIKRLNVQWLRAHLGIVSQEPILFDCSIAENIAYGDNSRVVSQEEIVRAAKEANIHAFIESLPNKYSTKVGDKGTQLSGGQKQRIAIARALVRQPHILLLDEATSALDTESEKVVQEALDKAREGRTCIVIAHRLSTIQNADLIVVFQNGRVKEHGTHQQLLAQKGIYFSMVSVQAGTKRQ

Take `COC(=O)/C(=C\c1ccc([N+](=O)[O-])cc1)CNCCc1ccc(OC)c(OC)c1`: the IC50 in data set [1] (setting [3]) came out at 0.89 µM. The IC10 in data set [1] (nci/adr-res, 48 h) was found to be 0.05 µM.

With `COC(=O)C(CNCCc1ccc(OC)c(OC)c1)C(O)c1ccc([N+](=O)[O-])cc1` (centres undefined), the IC50 in data set [1] (setting [3]) amounted to 85.1 µM. In addition, in data set [1] (nci/adr-res, 48 h), the IC10 was 15.7 µM. The Activity result in the data set on MCF7 is given as “Non-toxic”. The “growth inhibition (GI)” value in data set [2] was determined as 12.9%.

Turning to `COC(=O)/C(=C\c1ccccc1)CNCCc1ccc(OC)c(OC)c1`, the 50% inhibitory concentration (IC50) in data set [1] (setting [3]) is 75.8 µM. The IC10 in data set [1] (nci/adr-res, 48 h) is 12.9 µM. The Activity result in the data set with MCF7 was “Non-toxic”. The “growth inhibition (GI)” value in data set [2] is 16.1%.

As for `COC(=O)/C(=C\c1ccc(OC)c(OC)c1)CNCCc1ccc(OC)c(OC)c1`, the IC50 in data set [1] (setting [3]) came to 112 µM. In addition, the IC10 in data set [1] (nci/adr-res, 48 h) was determined as 7.47 µM. Besides, the Activity entry with MCF7 is recorded as “Non-toxic”. In addition, in data set [2], the “growth inhibition (GI)” value came out at 87.7%.

On to `COC(=O)/C(=C\c1ccc2c(c1)OCO2)CNCCc1ccc(OC)c(OC)c1`, for which the IC50 in data set [1] (setting [3]) is 248 µM. In addition, in data set [1] (nci/adr-res, 48 h), the IC10 was found to be 13.8 µM. The Activity result in the data set on MCF7 is listed as “Non-toxic”. Moreover, the “growth inhibition (GI)” value in data set [2] is recorded as 43.3%.

On to `COC(=O)C(CNCCc1ccc(OC)c(OC)c1)C(O)c1ccc(OC)c(OC)c1` (mixture of isomers), for which, in the data set with MCF7, the Activity result is “Non-toxic”. Besides, in data set [2], the “growth inhibition (GI)” value was 6.8%.

Consider `COC(=O)C(CNCCc1ccc(OC)c(OC)c1)C(O)c1ccccc1` (mixture of isomers), for which, in data set [1] (setting [3]), the IC50 was determined as 238 µM. For the same molecule, the 10% effect concentration (IC10) in data set [1] (nci/adr-res, 48 h) was found to be 14 µM. For the same molecule, in the data set on MCF7, the Activity result was “Non-toxic”. In addition, the “growth inhibition (GI)” value in data set [2] turned out to be 11.8%.

Consider `COC(=O)C(CNCCc1ccc(OC)c(OC)c1)C(O)c1ccc2c(c1)OCO2` (mixture of isomers), for which the IC50 in data set [1] (setting [3]) turned out to be 238 µM. Further, in data set [1] (nci/adr-res, 48 h), the IC10 was 20.7 µM. Besides, the Activity entry with MCF7 is “Non-toxic”. Further, the “growth inhibition (GI)” value in data set [2] was 10.4%.

Take `COC(=O)C(CNCCc1ccc(OC)c(OC)c1)Cc1ccccc1` (racemic): in data set [1] (setting [3]), the concentration for half-maximal inhibition (IC50) is 193 µM. Also, the 10% effect concentration (IC10) in data set [1] (nci/adr-res, 48 h) came to 15.2 µM. For the same molecule, in the data set with MCF7, the Activity result is listed as “Non-toxic”. In addition, in data set [2], the “growth inhibition (GI)” value is reported as 3.2%.

Take `COC(=O)C(CNCCc1ccc(OC)c(OC)c1)Cc1ccc(OC)c(OC)c1` (racemic): the concentration for half-maximal inhibition (IC50) in data set [1] (setting [3]) was found to be 28.9 µM. In addition, the 10% effect concentration (IC10) in data set [1] (nci/adr-res, 48 h) stood at 2.39 µM. Besides, the Activity entry in the data set on MCF7 is on record as “Non-toxic”. In addition, the “growth inhibition (GI)” value in data set [2] was 6.9%.

With `COC(=O)C(CNCCc1ccc(OC)c(OC)c1)Cc1ccc2c(c1)OCO2` (racemic), the IC50 in data set [1] (setting [3]) is 188 µM. The IC10 in data set [1] (nci/adr-res, 48 h) stood at 10.5 µM. Moreover, in the data set with MCF7, the Activity entry is “Non-toxic”. Besides, in data set [2], the “growth inhibition (GI)” value worked out at 5.8%.

As for `COC(=O)C(CNCCc1ccc(OC)c(OC)c1)C(O)c1ccc(OC)c(OC)c1` (single isomer, unassigned; form 1), in data set [1] (setting [3]), the half-maximal inhibitory concentration (IC50) came to 371 µM. Besides, the IC10 in data set [1] (nci/adr-res, 48 h) turned out to be 38.2 µM.

For `COC(=O)C(CNCCc1ccc(OC)c(OC)c1)C(O)c1ccc(OC)c(OC)c1` (single isomer, unassigned; form 2), the IC10 in data set [1] (nci/adr-res, 48 h) amounted to 30.1 µM. In addition, in data set [1] (nci/adr-res), the 50% inhibitory concentration (IC50) came out at 298 µM.

By IC50 is commonly meant the concentration needed to halve the response being measured. By IC10 is commonly meant the concentration needed for an effect of 10%.

The values are drawn from ChEMBL document CHEMBL3044602, “In vitro antiproliferative effect of -phenylethylamine derivatives and doxorubicin combinations on MCF/ADR cell lines” (Med Chem Res, 2013).
